Data reported in patent US9101136B2, “Synergistic herbicide/fungicide composition containing certain pyridine carboxylic acids and certain fungicides” (Dow AgroSciences LLC, priority 2010, dated 2015).

Legend:
Format in all cases: in vivo
[1] = test system: wild pansy (Viola tricolor L; VIOTR); test: Postemergence herbicidal activity of mixtures on wild pansy
Method: (§1) Seeds of the desired test plant species were planted in Sun Gro MetroMix 306 planting mixture, which typically has a pH of 6.0 to 6.8 and an organic matter content of about 30 percent, in plastic pots with a surface area of 103.2 square centimeters (cm^2). When required to ensure good germination and healthy plants, a fungicide treatment and/or other chemical or physical treatment was applied. The plants were grown for 7-36 days (d) in a greenhouse with an approximate 14-hour (h) photoperiod which was maintained at about 18° C. during the day and 17° C. during the night. Nutrients and water were added on a regular basis and supplemental lighting was provided with overhead metal halide 1000-Watt lamps as necessary. The plants were employed for testing when they reached the second or third true leaf stage.
(§2) Treatments consisted of a cereal fungicide compound (as listed in Tables 1 through 34) and the cereal herbicide, 4-amino-3-chloro-6-(4-chloro-2-fluoro-3-methoxyphenyl)pyridine-2-carboxylic acid, alone and in combination. Weighed amounts of acid, esters (methyl) or salts (triethylammonium, TEA) of 4-amino-3-chloro-6-(4-chloro-2-fluoro-3-methoxyphenyl)pyridine-2-carboxylic acid (Compound I) were placed in 25 milliliter (mL) glass vials and dissolved in a volume of 97:3 volume-to-volume (v/v) acetone/dimethyl sulfoxide (DMSO) to obtain 4.5 milligrams active ingredient per milliliter (mg ai/mL) concentrated solutions. […] The concentrated solutions of Compound I were diluted to 1.5 mg ai/mL with the addition of 2 volumes of an aqueous mixture containing acetone, water, isopropyl alcohol, DMSO, Agri-dex crop oil concentrate, and Triton® X-77 surfactant in a 64.7:26.0:6.7:2.0:0.7:0.01 v/v ratio. A dilution solution was prepared by mixing 1 volume of 97:3 v/v acetone/DMSO and 2 volumes of an aqueous mixture containing acetone, water, isopropyl alcohol, DMSO, Agri-dex crop oil concentrate, and Triton® X-77 surfactant in a 64.7:26.0:6.7:2.0:0.7:0.01 v/v ratio. Compound requirements are based upon a 12 mL application volume at a rate of 187 liters per hectare (L/ha). The concentrated solutions of the cereal fungicides were prepared following the same procedure. Weighed amounts of fungicide were placed in 25 mL glass vials and dissolved in a volume of 97:3 v/v acetone/DMSO to obtain concentrated fungicide solutions. The concentrated solutions of the safener were prepared following the same procedure. Weighed amounts of safener were placed in 25 mL glass vials and dissolved in a volume of 97:3 v/v acetone/DMSO to obtain concentrated safener solutions.
Spray solutions of the cereal herbicide and the fungicidal compound mixtures were prepared by adding the concentrated solutions to the appropriate amount of dilution solution to form 12 mL spray solution with active ingredients in combinations. Spray solutions of the cereal herbicide, herbicide safener and the fungicidal compound mixtures were prepared by adding the concentrated solutions to the appropriate amount of dilution solution to form 12 mL spray solution with active ingredients in combinations.
Formulated compounds were applied to the plant material with an overhead Mandel track sprayer equipped with 8002E nozzles calibrated to deliver 187 L/ha over an application area of 0.503 square meters (m^2) at a spray height of 18 inches […] above average plant canopy. Control plants were sprayed in the same manner with the solvent blank.
(§3) The treated plants and control plants were placed in a greenhouse as described above and watered by sub-irrigation to prevent wash-off of the test compounds. After 20-22 d, the condition of the test plants as compared with that of the control plants was determined visually and scored on a scale of 0 to 100 percent where 0 corresponds to no injury and 100 corresponds to complete kill. […]

[2] = test system: redroot pigweed (Amaranthus retroflexus L; AMARE); test: Postemergence herbicidal activity of mixtures on redroot pigweed; details: for AMARE Ob (observed control): alone
Method: as §1, §2
(§4) Spray solutions of the cereal herbicide and the fungicidal compound mixtures were prepared by adding the concentrated solutions to the appropriate amount of dilution solution to form 12 mL spray solution with active ingredients in combinations. Spray solutions of the cereal herbicide, herbicide safener and the fungicidal compound mixtures were prepared by adding the concentrated solutions to the appropriate amount of dilution solution to form 12 mL spray solution with active ingredients in combinations. […]
as §3

[3] = test system: lamb's-quarter (Chenopodium album L; CHEAL); test: Postemergence herbicidal activity of mixtures on lamb's-quarter; details: for CHEAL Ob (observed control): alone
Method: as §1
as §2, with “The concentrated solutions of the safener were prepared following the same procedure. Weighed amounts of safener were placed in 25 mL glass vials and dissolved in a volume of 97:3 v/v acetone/DMSO to obtain concentrated safener solutions.” left out
as §3

[4] = test system: chickweed (Stellaria media L; STEME); test: Postemergence herbicidal activity of mixtures on chickweed; details: for STEME Ob (observed control): alone
Method: as §1
Treatments consisted of a cereal fungicide compound (as listed in Tables 1 through 34) and the cereal herbicide, 4-amino-3-chloro-6-(4-chloro-2-fluoro-3-methoxyphenyl)pyridine-2-carboxylic acid, alone and in combination. Weighed amounts of acid, esters (methyl) or salts (triethylammonium, TEA) of 4-amino-3-chloro-6-(4-chloro-2-fluoro-3-methoxyphenyl)pyridine-2-carboxylic acid (Compound I) were placed in 25 milliliter (mL) glass vials and dissolved in a volume of 97:3 volume-to-volume (v/v) acetone/dimethyl sulfoxide (DMSO) to obtain 4.5 milligrams active ingredient per milliliter (mg ai/mL) concentrated solutions. […] The concentrated solutions of Compound I were diluted to 1.5 mg ai/mL with the addition of 2 volumes of an aqueous mixture containing acetone, water, isopropyl alcohol, DMSO, Agri-dex crop oil concentrate, and Triton® X-77 surfactant in a 64.7:26.0:6.7:2.0:0.7:0.01 v/v ratio. […]
as §3

[5] = test system: Canada thistle (Cirsium arvense L; CIRAR); test: Postemergence herbicidal activity of mixtures on Canada thistle; details: for CIRAR Ob (observed control): alone
Method: as §1, §2, §4, §3

COC(=O)NC(=S)Nc1ccccc1NC(=S)NC(=O)OC [Thiophanate-methyl, dimethyl[1,2-phenylenebis(iminocarbonothioyl)]bis[carbamate]]
0%: pest or weed control at 750 g/ha ([1]; Viola tricolor, post-emergence, alone, 750 g/ha, read-out: VIOTR Ob (observed control)) | AMARE Ob (observed control) ([2]; 750 g/ha) | CHEAL Ob (observed control) ([3]; 750 g/ha) | STEME Ob (observed control) ([4]; 750 g/ha) | CIRAR Ob (observed control) ([5]; 750 g/ha)

FC(F)C(F)(F)OCC(Cn1cncn1)c1ccc(Cl)cc1Cl (racemic) [Tetraconazole, (±)-1-[2-(2,4-dichlorophenyl)-3-(1,1,2,2-tetrafluoroethoxy)propyl]-1H-1,2,4-triazole]
0%: pest or weed control at 125 g/ha ([1]; Viola tricolor, post-emergence, alone, 125 g/ha, read-out: VIOTR Ob (observed control)) | AMARE Ob (observed control) ([2]; 125 g/ha) | CHEAL Ob (observed control) ([3]; 125 g/ha) | STEME Ob (observed control) ([4]; 125 g/ha) | CIRAR Ob (observed control) ([5]; 125 g/ha)

CO/C=C(/C(=O)OC)c1ccccc1COc1cccc(C(F)(F)F)n1 [Picoxystrobin, methyl (E)-(α)-(methoxymethylene)-2-[[[6-(trifluoromethyl)-2-pyridinyl]oxy]methyl]benzeneacetate]
0%: VIOTR Ob ([1]; fungicide 250 g/ha alone) | AMARE Ob ([2]; fungicide 250 g/ha alone) | CHEAL Ob ([3]; fungicide 250 g/ha alone) | STEME Ob ([4]; fungicide 250 g/ha alone) | CIRAR Ob ([5]; fungicide 250 g/ha alone)
